# Experimental data published in patent US9464093B2, “Substituted imidazo[4',5':4,5]cyclopenta[1,2-e]pyrrolo[1,2-a]pyrazines and oxazolo[4',5':4,5]cyclopenta[1,2-e]pyrrolo[1,2-a]pyrazines for treating brain cancer” (Mayo Foundation for Medical Education and Research, priority 2012, dated 2016).
# Read-outs that look alike come from different tables or passages of the source.
# What was measured:
# [1] = test system: DU145 prostate cancer cells; experiment: Cytotoxicity, MTT method, DU145; conditions: read-out: Cytotoxicity (IC50, μM) DU145
# Experimental: The cell suspension in the culture medium was plated into each well of 96-well plates (10,000 cells/well/100 μL). After 24 h, testing compounds were added, and then the plates were incubated for an additional 24 h in a humidified atmosphere of 5% CO2 at 37° C. […] The IC50 value was determined by linear interpolation from the growth inhibition curve.
# [2] = test system: Raji B cells (Burkitt's lymphoma cells); experiment: Cytotoxicity, cell count, Raji (Example 4); conditions: read-out: Cytotoxicity (IC50, μM) Raji
# Experimental: (§1) Raji cells and MB-468 cells were purchased from American Tissue Culture (Manassas, Va.). […] Cells were harvested and counted on the third day in a Coulter Particle Counter (Beckman-Coulter Corp.: Brea, Calif.). IC50 values were calculated using GraphPad Prism 5 (GraphPad Software Inc., La Jolla, Calif.).
# [3] = test system: MB-468 (triple-negative breast cancer cells); experiment: Cytotoxicity, cell count, MB-468 (Example 4); conditions: read-out: Cytotoxicity (IC50, μM) MB-468
# Experimental: as §1
Molecule,"IC50 ([1]; Homo sapiens, DU-145, 24 h) [µM]","IC50 ([2]; Homo sapiens, Raji) [µM]",IC50 [3] [µM],other results
"CCN1C(=O)N[C@H]2[C@@H]3NC(=O)c4ccc(Br)n4[C@@H]3C[C@]21O [EAA, ethylagelastatin A]",> 10,,,
"CCN1C(=O)N[C@H]2[C@@H]3NC(=O)c4cccn4[C@@H]3C[C@]21O [DeBEAA, debromoethylagelastatin A]",> 10,,,
debromoagelastatin A [DeBAA],,,,"IC50 ([2]; cells counted on the third day): 3.16 µM; IC50 ([3]; cells counted on the third day): 3 µM; IC50 ([1]; MTT, 24 h incubation): > 10 µM"
"COc1ccc(CN2C(=O)N[C@H]3[C@@H]4NC(=O)c5ccc(Br)n5[C@@H]4C[C@]32O)cc1 [N-PMBAA, N-p-methoxybenzyl agelastatin A]",> 10,,,
CN1C(=O)N[C@@H]2[C@H]3NC(=O)c4ccc(Br)n4[C@H]3C[C@@]21O [ent-AA],,,,"IC50 ([1]; MTT, 24 h incubation): > 10 µM"
"CN1C(=O)N[C@H]2[C@@H]3NC(=O)c4ccc(-c5ccccc5)n4[C@@H]3C[C@]21O [PAA, phenylagelastatin A]",6,3.8,1.5,
"CN1C(=O)N[C@H]2[C@@H]3NC(=O)c4ccc(-c5ccc(N)cc5)n4[C@@H]3C[C@]21O [APAA, p-aminophenylagelastatin A]",> 10,,,
"CNC(=O)N[C@H]1[C@@H]2NC(=O)c3ccc(Br)n3[C@@H]2C[C@H]1O [UAA, ureaagelastaitin A]",,> 10,> 10,
"CN1C(=O)N[C@H]2[C@@H]3NC(=O)c4ccc(C5CC5)n4[C@@H]3C[C@]21O [CPAA, cyclopropylagelastatin A]",5,0.4,1,
